Consider one molecule from ChEMBL document CHEMBL1158510, “Hybrid anticancer agents: isothiocyanate-progesterone conjugates as chemotherapeutic agents and insights into their cytotoxicities” (Bioorg Med Chem Lett, 2010).

pIC50: −log10 of the molar value.

What all share (type): functional, cell-based
Assay [1] concerns MCF7. Kind of assay: Cytotoxicity against human MCF7 cells after 72 hrs by MTT assay. The conditions noted are these: MCF7, 72 h. Background: Tetrazolium dyes change colour on reduction, which living cells bring about.
In assay [2] the test system is MDA-MB-231. As to the kind of experiment: Cytotoxicity against human MDA-MB-231 cells after 72 hrs by MTT assay. The conditions noted are these: MDA-MB-231, 72 h.
The subject of assay [3] is BT-20. As to the kind of experiment: Cytotoxicity against human BT20 cells after 72 hrs by MTT assay. The conditions noted are these: BT-20, 72 h.
Assay [4] relates to PC-3. Kind of assay: Cytotoxicity against human PC3 cells after 72 hrs by MTT assay. The conditions noted are these: PC-3, 72 h.

A word on the pIC50: it is the negative decadic logarithm of the IC50, by convention in mol/L. The low end stands for a large IC50, the high end for a small IC50. With `CC(=O)[C@H]1CC[C@H]2[C@@H]3CCC4=C/C(=N/NC(N)=S)CC[C@]4(C)[C@H]3CC[C@]12C`, the pIC50 in assay [1] was 4.70; in assay [2], 4.60; in assay [3], 5.28; in assay [4], 4.80.
